Results on seven molecules are retold here after US4593090A, “Novel nitrosourea compounds, method for preparing same, and pharmaceutical composition containing same” (Gogo Kimura, priority 1981, dated 1986).

The subject of data set [1] is Leukemia L1210. Description: Activity against Leukemia L1210, oral, increase in life span of mice. Format: in vivo, female mice (BDF1 family). Particulars: for ED (maximum ILS) / ED30: Mus musculus, L1210, oral once a day for 5 successive days; for ED (maximum ILS): daily dosage giving maximum increase of life span, read-out: O.D. (optimum dosage); for ED30: daily dosage increasing average survival days by 30%, read-out: ILS30; for Survivors after 60 days / Max. ILS % / Therapeutic ratio TR: oral; for Survivors after 60 days: 6-membered group; for Max. ILS %: 60-day observation, versus control; for Therapeutic ratio TR: O.D./ILS30. Summed up:
(§1)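 L1210 cells (1×10^5) into abdominal cavity of female BDF1 mice, 20–23 g, n=6/group. Dosing 24 h post-implant, ip or po, qd ×5. 60-day observation; ILS% = mean survival vs untreated control; T.R. = O.D./ILS 30.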

The test system of data set [2] is Ehrlich acites carcinoma. The data set can be described thus: Growth-inhibiting effect against Ehrlich acites carcinoma. In kind it is in vivo, male mice. Particulars: Mus musculus, Ehrlich, 120 h, 5 days; for response vs control in vivo at 25 mg/kg: 25 mg/kg/day ip; for response vs control in vivo at 100 mg/kg: 100 mg/kg/day ip. The essentials: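 Activity graded from T/C% of total packed ascites cell volume on day 7 (treated vs untreated): - 100-66, + 65-41, ++ 40-11, +++ 10-0. Groups of 6 male mice bore 1×10^7 i.p.-implanted cells and received compound (1% Nikkol HCO-60) i.p. daily for 5 days from 24 hrs after implantation.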

Data set [3] relates to Leukemia L1210. The data set can be described thus: Activity against Leukemia L1210, intraperitoneal, increase in life span of mice. Format: in vivo, female mice (BDF1 family). Particulars: for ED (maximum ILS) / ED30: Mus musculus, L1210, ip, ip once a day for 5 successive days; for ED (maximum ILS): daily dosage giving maximum increase of life span, read-out: O.D. (optimum dosage); for ED30: daily dosage increasing average survival days by 30%, read-out: ILS30; for Survivors after 60 days / Max. ILS % / Therapeutic ratio TR: ip; for Survivors after 60 days: 6-membered group; for Max. ILS %: 60-day observation, versus control; for Therapeutic ratio TR: O.D./ILS30. Summed up:
as §1

The nature of data set [4]: Acute toxicity (LD50, Behrens-Karber method). In kind it is in vivo, ICR mice. Conditions: mouse, in vivo, ip, mortality during 30 days. The method, then: Test compounds, dissolved or suspended in 0.5% aqueous CMC, were each intraperitoneally administered to ICR mice in a dose of 0.1 ml per 10 g body weight. LD50 (mg/kg) value of each test compound was calculated from the mortality of mice during 30 days by the Behrens-Karber method.

Molecules are shown by their SMILES. Read-outs that look alike come from different tables or passages of the source. Some results are limits rather than exact numbers.

Broadly, the LD50 is the dose expected to kill half of the subjects tested. As for `CCCCO[C@H]1O[C@H](CN(CC(C)OC)C(=O)N(CCCl)N=O)[C@@H](O)[C@H](O)[C@H]1O` (stereo partly drawn) [Compound 11, 3-(2-methoxy-n-propyl)-3-(n-butyl α-D-glucopyranose-6-yl)-1-(2-chloroethyl)-1-nitrosourea], in data set [1], the ED (maximum ILS) amounted to 220 mg/kg, the ED30 amounted to 9.57 mg/kg, the “Survivors after 60 days” value was 6/6 and the “Max. ILS %” value is listed as above 700%. For the same molecule, the “Therapeutic ratio TR” value in data set [1] turned out to be 23.0. In data set [2] (read-out: Activity), the response vs control in vivo at 25 mg/kg was 0 to 10% and the response vs control in vivo at 100 mg/kg lay in the range of 0 to 10%. Also, in data set [2] (read-out: T/C %), the response vs control in vivo at 25 mg/kg came to 0% and the response vs control in vivo at 100 mg/kg was found to be 0%. In addition, in data set [3], the ED (maximum ILS) stood at 170 mg/kg, the ED30 is 2.9 mg/kg, the “Survivors after 60 days” value is 6/6 and the “Max. ILS %” value was above 700%. Further, in data set [3], the “Therapeutic ratio TR” value is 58.6. Further, the LD50 at 720 h in data set [4] came to 495 mg/kg.

Take `COCC(C)N(C[C@H]1O[C@H](OCC(C)C)[C@H](O)[C@@H](O)[C@@H]1O)C(=O)N(CCCl)N=O` (stereo partly drawn) [Compound 16, 3-(1-methyl-2-methoxyethyl)-3-(isobutyl α-D-glucopyranose-6-yl)-1-(2-chloroethyl)-1-nitrosourea]: in data set [1], the ED (maximum ILS) came to 240 mg/kg, the ED30 stood at 8.82 mg/kg, the “Survivors after 60 days” value is listed as 6/6 and the “Max. ILS %” value is above 700%. Moreover, the “Therapeutic ratio TR” value in data set [1] stood at 27.2. In data set [2] (read-out: Activity), the response vs control in vivo at 25 mg/kg was 0 to 10% and the response vs control in vivo at 100 mg/kg lay within 0 to 10%. Moreover, in data set [2] (read-out: T/C %), the response vs control in vivo at 25 mg/kg turned out to be 0% and the response vs control in vivo at 100 mg/kg amounted to 0%. Further, in data set [3], the ED (maximum ILS) was determined as 190 mg/kg, the ED30 worked out at 2.9 mg/kg, the “Survivors after 60 days” value is 6/6 and the “Max. ILS %” value is above 700%. Also, the “Therapeutic ratio TR” value in data set [3] was 65.6. In data set [4], the LD50 at 720 h was 580 mg/kg.

In the case of `COCC(C)N(C[C@H]1O[C@H](OC2CCCCC2)[C@H](O)[C@@H](O)[C@@H]1O)C(=O)N(CCCl)N=O` (stereo partly drawn) [Compound 42, 3-(1-methyl-2-methoxyethyl)-3-(cyclohexyl α-D-glucopyranose-6-yl)-1-(2-chloroethyl)-1-nitrosourea], in data set [1], the ED (maximum ILS) stood at 230 mg/kg, the ED30 is 7.88 mg/kg, the “Survivors after 60 days” value was 6/6 and the “Max. ILS %” value is recorded as above 700%. Also, the “Therapeutic ratio TR” value in data set [1] was determined as 29.2. In data set [2] (read-out: Activity), the response vs control in vivo at 25 mg/kg was 0 to 10% and the response vs control in vivo at 100 mg/kg was 0 to 10%. Also, in data set [2] (read-out: T/C %), the response vs control in vivo at 25 mg/kg is 0% and the response vs control in vivo at 100 mg/kg came out at 0%. In data set [3], the ED (maximum ILS) was 180 mg/kg, the ED30 amounted to 2.7 mg/kg, the “Survivors after 60 days” value is reported as 6/6 and the “Max. ILS %” value is listed as above 700%. Also, the “Therapeutic ratio TR” value in data set [3] was determined as 66.6. Also, the LD50 at 720 h in data set [4] stood at 595 mg/kg.

In the case of `COCCN(C(=O)N(CCCl)N=O)C1C(OC(C)COC)OC(CO)C(O)C1O` [Compound 71, 3-(2-methoxyethyl)-3-(1-methyl-2-methoxyethyl α-D-glucopyranose-2-yl)-1-(2-chloroethyl)-1-nitrosourea], in data set [1], the ED (maximum ILS) came out at 220 mg/kg, the ED30 amounted to 13.1 mg/kg, the “Survivors after 60 days” value is given as 4/6 and the “Max. ILS %” value is above 440%. Moreover, the “Therapeutic ratio TR” value in data set [1] was determined as 16.8. Moreover, in data set [2] (read-out: Activity), the response vs control in vivo at 25 mg/kg is 0 to 10% and the response vs control in vivo at 100 mg/kg fell in the range of 0 to 10%. In data set [2] (read-out: T/C %), the response vs control in vivo at 25 mg/kg is 0% and the response vs control in vivo at 100 mg/kg is 0%. For the same molecule, in data set [3], the ED (maximum ILS) was 180 mg/kg, the ED30 came to 4.17 mg/kg, the “Survivors after 60 days” value is listed as 6/6 and the “Max. ILS %” value is above 700%. Besides, in data set [3], the “Therapeutic ratio TR” value is 43.2. The same molecule had an LD50 at 720 h in data set [4] of 560 mg/kg.

For the molecule `O=NN(CCCl)C(=O)N(C1CCCCC1)C1C(OCC2CCCO2)OC(CO)C(O)C1O` [Compound 75, 3-cyclohexyl-3-(tetrahydrofurfuryl α-D-glucopyranose-2-yl)-1-(2-chloroethyl)-1-nitrosourea], in data set [1], the ED (maximum ILS) was 200 mg/kg, the ED30 stood at 11.6 mg/kg, the “Survivors after 60 days” value is given as 4/6 and the “Max. ILS %” value was above 450%. Further, in data set [1], the “Therapeutic ratio TR” value was found to be 17.2. In addition, in data set [2] (read-out: Activity), the response vs control in vivo at 25 mg/kg lay within 0 to 10% and the response vs control in vivo at 100 mg/kg was in the range of 0 to 10%. For the same molecule, in data set [2] (read-out: T/C %), the response vs control in vivo at 25 mg/kg turned out to be 0% and the response vs control in vivo at 100 mg/kg was 0%. In addition, in data set [3], the ED (maximum ILS) amounted to 160 mg/kg, the ED30 was determined as 3.67 mg/kg, the “Survivors after 60 days” value is 5/6 and the “Max. ILS %” value is given as above 625%. Further, in data set [3], the “Therapeutic ratio TR” value is listed as 43.6. In data set [4], this molecule returned an LD50 at 720 h of 505 mg/kg.

For `COCCN(C[C@H]1O[C@H](OC2CCCCC2)[C@H](O)[C@@H](O)[C@H]1O)C(=O)N(CCCl)N=O` [Compound 101, 3-(2-methoxyethyl)-3-(cyclohexyl α-D-galactopyranose-6-yl)-1-(2-chloroethyl)-1-nitrosourea], in data set [1], the ED (maximum ILS) amounted to 250 mg/kg, the ED30 turned out to be 11.2 mg/kg, the “Survivors after 60 days” value is on record as 4/6 and the “Max. ILS %” value was above 460%. The “Therapeutic ratio TR” value in data set [1] stood at 22.3. Moreover, in data set [2] (read-out: Activity), the response vs control in vivo at 25 mg/kg is 0 to 10% and the response vs control in vivo at 100 mg/kg was 0 to 10%. Also, in data set [2] (read-out: T/C %), the response vs control in vivo at 25 mg/kg was 0% and the response vs control in vivo at 100 mg/kg was 0%. In data set [3], the ED (maximum ILS) worked out at 200 mg/kg, the ED30 worked out at 3.66 mg/kg, the “Survivors after 60 days” value is listed as 6/6 and the “Max. ILS %” value is above 700%. For the same molecule, the “Therapeutic ratio TR” value in data set [3] turned out to be 54.6. In data set [4], this molecule gave an LD50 at 720 h of 660 mg/kg.

For `CCOCCO[C@H]1O[C@H](CN(CC(C)C)C(=O)N(CCCl)N=O)[C@H](O)[C@H](O)[C@H]1O` [Compound 114, 3-isobutyl-3-(2-ethoxyethyl α-D-galactopyranose-6-yl)-1-(2-chloroethyl)-1-nitrosourea], in data set [1], the ED (maximum ILS) worked out at 210 mg/kg, the ED30 came to 9.05 mg/kg, the “Survivors after 60 days” value is on record as 6/6 and the “Max. ILS %” value is given as above 700%. Also, the “Therapeutic ratio TR” value in data set [1] was found to be 23.2. For the same molecule, in data set [2] (read-out: Activity), the response vs control in vivo at 25 mg/kg is 0 to 10% and the response vs control in vivo at 100 mg/kg fell in the range of 0 to 10%. In data set [2] (read-out: T/C %), the response vs control in vivo at 25 mg/kg was 0% and the response vs control in vivo at 100 mg/kg came out at 0%. For the same molecule, in data set [3], the ED (maximum ILS) came to 180 mg/kg, the ED30 was found to be 2.86 mg/kg, the “Survivors after 60 days” value is 6/6 and the “Max. ILS %” value was above 700%. For the same molecule, the “Therapeutic ratio TR” value in data set [3] was 62.9. This molecule showed an LD50 at 720 h in data set [4] of 580 mg/kg.
